# Data published in publication PMC8329300, “X-ray crystallography reveals molecular recognition mechanism for sugar binding in a melibiose transporter MelB” (Communications Biology, 2021).
# Target: T1, WT MelBSt (Salmonella typhimurium, UniProt P30878)
# T1 construct: Cys scanning mutagenesis for the full-length MelBSt; His10 (C); made in house; host or cells: E. coli DW2
# Assay: biochemical
# Type: binding
# Conditions: for IC50: IC50 of galactoside displacement on bound D2G, α-NPG, 10 μM D2G
# Procedure: Fig. 1 Functional characterizations. a [^3H] Melibiose transport time course with intact cells. […] Inset, melibiose fermentation assay. Transformants with DW2 strain were plated on MacConkey agar plates containing 30 mM melibiose as the sole carbohydrate source and pH sensor neutral red, and incubated at 37 °C for 16–18 h before imaging. Number of tests = 3, from different batch of cells or duplicate measurements from same batch of sample. b Ligand binding by Trp→dansyl galactoside (D^2G) FRET assay. Purified proteins at 1 μM concentration in 20 mM Tris-HCl, pH 7.5, 100 mM CholCl, 10% glycerol, and 0.03% UDM were subjected to steady-state fluorescence measurements as described in Methods. On the time-trace, 1.8 μL of 1 mM D^2G at 10 μM was added into 180 μL of protein solutions at 1-min point, followed by supplying 10 μL of 5 mM DDMB or 5 mM α-NPG to displace the bound D^2G. For testing Na^+ or Li^+ binding, they are added into the solution before displacement with the second sugar. The structure of DDMB or α-NPG is shown in a chair form, and the carbon positions are labeled. Glycosidic bonds are indicated by arrows. Both are α-galactosides containing a substituent at the anomeric carbon-1. The data were from duplicate measurements.
# Steady-state fluorescence measurements were performed with an AMINCO-Bowman series 2 spectrometer with purified MelBSt at 1 μM in 20 mM Tris-HCl, pH 7.5, 100 mM CholCl, 10% glycerol, 0.03% UDM. Using an excitation wavelength at 290 nm, the emission intensity was recorded at 490 nm. On a time-trace, D^2G, NaCl or LiCl, then DDMB or α-NPG, were sequentially added into the protein solutions at a 1 min-interval. […] An identical volume of water was used for the control. The decrease in intensity after each addition of DDMB or α-NPG was corrected by the dilution effect and plotted as a function of the accumulated α-NPG concentrations or estimated DDMB concentrations. The 50% inhibitory concentration (IC50) was determined by fitting a hyperbolic function to the data (OriginPro 2020b). The final concentration of each detergent is estimated to be 234 μM, which is less than their CMC value for (DDMB, 295 μM).
# Supplementary Figure 2. Determination of DDMB binding affinity to MelBSt. (a) Titration with DDMB or a-NPG. MelBSt in 20 mM Tris-HCl, pH 7.5, 100 mM CholCl, 10% glycerol, 0.03% UDM without (1) or with 100 mM NaCl (2) were added with D2G at 10 μM at 1-min time point as indicated by triangle symbols on the Trp®dansyl FRET time trace. Starting at the 2-min of time point, DDMB or a-NPG solution was supplemented consecutively at a 1-min interval into MelBSt solution till no change in fluorescence intensity reached as indicated in star symbols. DDM and UDM were used as negative controls. 1% DDM or UDM was titrated into the mixture, The […]
# At 2-min time point, additions of galactosides were colored in pink, a-NPG in yellow, UDM in blue, DDM in light blue, water in gray traces, respectively. (b) IC50 determination. The intensity decrease at each titration were corrected by the dilution effect, and plotted as a function of the accumulated DDMB or α-NPG concentration. The 50% inhibitory concentration (IC50) was determined by fitting the data to a hyperbolic function (OriginPro 2020b). Results are presented in […]
# (1 picture or pasted object on this page, not shown here)
# T1 sequence (P30878 whole entry): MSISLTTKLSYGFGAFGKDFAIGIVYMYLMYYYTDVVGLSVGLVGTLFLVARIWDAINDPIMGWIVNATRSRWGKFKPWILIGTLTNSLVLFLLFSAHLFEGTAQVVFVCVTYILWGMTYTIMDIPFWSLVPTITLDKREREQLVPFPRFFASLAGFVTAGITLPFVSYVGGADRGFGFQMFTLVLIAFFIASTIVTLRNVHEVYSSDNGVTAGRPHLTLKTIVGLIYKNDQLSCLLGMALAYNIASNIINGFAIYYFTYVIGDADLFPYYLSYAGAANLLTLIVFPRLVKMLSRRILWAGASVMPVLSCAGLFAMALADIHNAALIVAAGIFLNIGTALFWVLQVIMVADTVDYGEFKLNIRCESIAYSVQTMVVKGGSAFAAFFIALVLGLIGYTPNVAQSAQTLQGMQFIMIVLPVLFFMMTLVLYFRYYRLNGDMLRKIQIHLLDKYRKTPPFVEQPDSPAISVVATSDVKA
smiles,measurement,setting,value
"O=[N+]([O-])c1ccc(OC2OC(CO)C(O)C(O)C2O)cc1 [α-NPG, 4-nitrophenyl-α-D-galactopyranoside]",IC50,Apo,58.2 ± 11.5 µM
same,IC50,Na+ (100 mM),23 ± 2.24 µM
same,effect on Trp→D2G FRET of D2G-bound protein (displacement),added to D2G-bound WT MelBSt,large decrease in fluorescent intensity
